Key:
DMS114 cells = assay: CellTiter-Glo cell number assay, DMS114; assay type: cell-based, Human; conditions: 15 μg/ml, 4 days, 10%, 1% or 0.1% FBS
From the text: A panel of lung cancer cell lines displaying potential amplification of the FGFR1 gene was identified using CONAN (http://www.sanger.ac.uk/cgi-bin/genetics/CGP/conan/search.cgi) and Tumorscape (http://www.broadinstitute.org/tumorscape/pages/portalHomejsf). CONAN and Tumorscape represent public data mining tools to extract gene copy number information for predefined or user defined loci across the SNP6.0 dataset of cancer. Lung cancer cell lines DMS53, DMS114, NCI-H1581 and NCI-H520 were identified as having potential amplification of the FGFR1 gene (>4 copies/cell) and were selected for further analysis. Human small cell lung cancer (SCLC) cell lines DMS53 and DMS114 were purchased from ATCC (Manassas, Va.; Cat. No. CRL-2062; Cat. No. CRL-2066, respectfully). The cells were cultured in Waymouth's MB 752/1 medium+10% FBS+2 mM L-glutamine at 37° C. in a humidified atmosphere with 5% CO2. […]
To determine cell number the CellTiter-Glo® Luminescent Cell Viability Assay (Promega, Madison, Wis.) was employed. CellTiter-Glo® is a homogeneous method of determining the number of viable cells in culture based on quantitation of the ATP present, an indicator of metabolically active cells. […] Luminescence was then determined on an EnVision™ Multilabel Plate Reader (PerkinElmer, Boston, Mass.) with a 0.2 second integration time. Results were expressed as relative light units (RLU)/well.

[1] = Plasma concentration in rats by quantitative ELISA; assay type: in vivo, Sprague Dawley rats; conditions: 200 mg/kg/qwk, four weekly doses
Experimental: In the first experiment, Sprague Dawley rats (Charles River Labs; N=5/group) were dosed with vehicle, 10, 50 or 200 mg/kg/qwk of FGFR1-ECD.339-Fc for four weekly doses and plasma concentrations of FGFR1-ECD.339-Fc were determined throughout the study by an ELISA based detection method.
FGFR1-ECD.339-Fc concentration in plasma was determined using a quantitative ELISA. Briefly, recombinant human FGF-2 (R&D Systems) was immobilized on a half-well microtiter ELISA plate, blocked and incubated with test samples (diluted 1:10 with blocking buffer/20 μg/mL of heparin). The plate was subsequently washed and a dilute goat anti-human IgG-Fc HRP antibody solution (Sigma) was added and incubated. After a final wash step, a tetramethylbenzidine peroxidase substrate solution was added and incubated at ambient temperature with gentle shaking. The reaction was stopped with a phosphoric acid solution. Plates were read on a plate reader (450 nm). FGFR1-ECD.339-Fc concentrations were determined on a standard curve obtained by plotting optical density (OD) versus concentration.

[2] = system: lung cancer cell lines with FGFR1 gene amplification; assay: Tritiated thymidine incorporation, FGFR1 gene-amplified lung cancer cell lines (average); assay type: cell-based, Human; conditions: averaged across all FBS concentrations, vs control ECD-Fc
Experimental: To determine the impact of FGFR1-ECD.339-Fc on lung cancer cell lines in tissue culture, cells were plated in a Microtest™ 96-well tissue culture plate (Becton Dickenson, Franklin Lakes, N.J.) at a density of 5×10^3 cells/well in medium containing 10%, 1% or 0.1% FBS in the presence or absence of 15 μg/ml FGFR1-ECD.339-Fc (SEQ ID NO: 6) or an unrelated ECD-Fc fusion protein (as a negative control). Plates were incubated at 37° C. at 5% CO2 for 4 days and then assayed to determine the impact of FGFR1-ECD.339-Fc on cell number and proliferation.
To determine the impact of FGFR1-ECD.339-Fc on cell proliferation the tritiated thymidine ([3H]-TdR) incorporation assay was employed. […] After 16-h exposure, tritiated thymidine incorporation was assessed. […] Thymidine incorporation was determined as counts per minute (cpm) on a Topcount NXT (PerkinElmer) scintillation counter. Results were expressed as cpm/well.
The impact of FGFR1-ECD.339-Fc on cell proliferation as assessed by tritiated thymidine incorporation was also compared between FGFR1 gene amplified and non-amplified lung cancer cell lines (FIG. 4). An average percent reduction in cell proliferation with FGFR1-ECD.339-Fc addition was determined across all FBS concentrations examined for each FGFR1 gene amplified cell line and the panel of non-FGFR1 gene amplified cell lines indicated above. […]

FGFR1-ECD.339-Fc: FGFR1 ECD fusion molecule: human FGFR1 extracellular domain ending at amino acid 339 fused to an Fc; SEQ ID NO: 6 (mature form)
cell number (CellTiter-Glo) (DMS114 cells): significantly (P=>0.01) reduced | maximal plasma concentration ([1]; female rats): 3.6 mg/mL | maximal plasma concentration ([1]; male rats): 4.2 mg/mL | average reduction in CPM (tritiated thymidine incorporation) [2]: 62.75%
